The results in this text go back to patent publication US7420001B2 (Wyeth, priority 2003, dated 2008).

SMILES strings stand for the structures. Where a name gives a salt, the structure may show the parent alone. Read-outs that look alike come from different tables or passages of the source.

One assay has as its target T1, MMP-2 (Homo sapiens, UniProt P08253).
T1 construct: purchased Oncogene Research Products (Calbiochem) PF023
T1 sequence (P08253 110-660): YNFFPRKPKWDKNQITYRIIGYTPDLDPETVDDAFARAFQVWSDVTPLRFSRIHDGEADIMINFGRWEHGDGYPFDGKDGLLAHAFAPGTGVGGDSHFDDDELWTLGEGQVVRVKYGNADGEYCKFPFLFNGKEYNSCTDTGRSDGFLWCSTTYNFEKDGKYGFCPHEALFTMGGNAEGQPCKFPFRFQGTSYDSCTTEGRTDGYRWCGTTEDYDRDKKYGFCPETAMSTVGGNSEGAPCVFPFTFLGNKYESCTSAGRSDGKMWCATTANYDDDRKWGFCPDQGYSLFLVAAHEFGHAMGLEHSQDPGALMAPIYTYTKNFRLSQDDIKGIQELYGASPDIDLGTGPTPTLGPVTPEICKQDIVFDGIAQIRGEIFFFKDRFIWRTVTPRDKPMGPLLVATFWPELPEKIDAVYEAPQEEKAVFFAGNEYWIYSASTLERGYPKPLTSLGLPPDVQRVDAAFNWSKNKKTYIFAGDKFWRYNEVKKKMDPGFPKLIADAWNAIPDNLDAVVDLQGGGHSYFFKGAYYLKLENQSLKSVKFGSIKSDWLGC
The experiment in a line: In-vitro fluorescence assay of MMP-2 activity. The following applies: recombinant human MMP-2; read-out: MMP-2 IC50. Format: biochemical.

For another assay, the target named is T2, MMP-13 (Homo sapiens, UniProt P45452).
T2 construct: made in house
The experiment in a line: In-vitro fluorescence assay of MMP-13 activity. Format: biochemical.

The target of the next assay is T3, MMP-14 (Homo sapiens, UniProt P50281).
T3 construct: 20 kDa; purchased Chemicon International, Inc. CC 1041
The experiment in a line: In-vitro fluorescence assay of MMP-14 activity. It counts as biochemical. The following applies: recombinant human catalytic domain of MMP-14.

For another assay, the target named is T4, MMP-1 (Homo sapiens, UniProt P03956).
T4 sequence (P03956 100-269 limits assumed): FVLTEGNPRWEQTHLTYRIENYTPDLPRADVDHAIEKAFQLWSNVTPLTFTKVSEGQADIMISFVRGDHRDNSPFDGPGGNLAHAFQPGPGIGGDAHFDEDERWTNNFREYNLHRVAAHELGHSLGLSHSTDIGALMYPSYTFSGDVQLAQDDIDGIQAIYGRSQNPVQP

Setting [1] is: recombinant human catalytic domain of MMP-13, read-out: MMP-13 IC50.

Protocol for MMP-14: A continuous assay was used in which the substrate is a synthetic peptide containing a fluorescent group (7-methoxycoumarin; Mca) which is quenched by energy transfer to a 2,4-dinitrophenyl group. […] The substrate used was Mca-PQGL-(3-[2,4-dinitrophenyl]-L-2,3-diaminopropionyl)-AR-OH (denoted as Wammp-5, custom synthesized by AnaSpec, Inc.). The assay buffer consisted of 50 mM Hepes (pH 7.4), 100 mM NaCl, 5 mM CaCl2, and 0.005% Brij-35. […] The enzymatic reactions were initiated by adding the substrate to a final concentration of 20 μM, and mixing 10 times with a pipette. The final DMSO concentration in the assay was 6.0%.
Plots of the inhibitor concentration vs. the percent inhibition were fit to the following equation: y=(a−d)/[1+(x/c)^b]+d, a general sigmoidal curve with Hill slope, a to d. x is the inhibitor concentration under test. y is the percent inhibition. a is the limiting response as x approaches zero. As x increases without bound, y tends toward its limit d. c is the inflection point (IC50) for the curve. That is, y is halfway between the lower and upper asymptotes when x=c. b is the slope factor or Hill coefficient.

Usually IC50 stands for the point on the concentration scale where inhibition reaches its midpoint. In the case of `Cc1c(C(=O)Nc2ccc(-c3ccc(S(=O)(=O)N[C@H](C(=O)O)C(C)C)cc3)cc2)oc2ccccc12` [Example 83, N-[(4′-{[(3-Methyl-1-benzofuran-2-yl)carbonyl]amino}-1,1′-biphenyl-4-yl)sulfonyl]-L-valine], the IC50 is 0.259 µM at MMP-2, 0.0059 µM on MMP-13 (setting [1]), 12.4 µM at MMP-14 and 24.3 µM on MMP-1.

As for `Cc1c(C(=O)Nc2ccc(-c3ccc(S(=O)(=O)N[C@@H](C(=O)O)C(C)C)cc3)cc2)oc2ccccc12` [Example 74, D-3-Methyl-2-{4′-[(3-methyl-benzofuran-2-carbonyl)-amino]-biphenyl-4-sulfonylamino}-butyric acid], the IC50 stood at 0.093 µM at MMP-2, 0.013 µM at MMP-13 (setting [1]), 0.029 µM at MMP-14 and 28.3 µM on MMP-1.

In the case of `Cc1cc(C(=O)Nc2ccc(-c3ccc(S(=O)(=O)N[C@H](C(=O)O)C(C)C)cc3)cc2)nn1-c1ccccc1` [Example 168, (S)-3-Methyl-2-{4′-[(5-methyl-1-phenyl-1H-pyrazole-3-carbonyl)-amino]-biphenyl-4-sulfonylamino}-butyric acid], the IC50 is 1.29 µM at MMP-2, 0.099 µM on MMP-13 (setting [1]), 36 µM at MMP-14 and 60 µM on MMP-1.

In the case of `CC(C)[C@H](NS(=O)(=O)c1ccc(-c2ccc(NC(=O)c3cc4ccccc4[nH]3)cc2)cc1)C(=O)O` [Example 3], the half-maximal inhibitory concentration (IC50) at MMP-14 stood at 5.6 µM.

Turning to `CC(C)[C@@H](NS(=O)(=O)c1ccc(-c2ccc(OC(=O)c3cc4ccccc4o3)cc2)cc1)C(=O)O` [Example 135, Benzofuran-2-carboxylic acid 4′-(1-carboxy-2-methyl-propylsulfamoyl)-biphenyl-4-yl ester], the IC50 was 0.0007 µM at MMP-2, 0.0005 µM at MMP-13 (setting [1]), 2 µM on MMP-14 and 20 µM on MMP-1.

Turning to `CC(C)[C@H](NS(=O)(=O)c1ccc(-c2ccc(NC(=O)c3cccs3)cc2)cc1)C(=O)O` [Example 174, (S)-3-Methyl-2-{4′-[(thiophene-2-carbonyl)-amino]-biphenyl-4-sulfonylamino}-butyric acid], the 50% inhibitory concentration (IC50) on MMP-2 was 0.061 µM; on MMP-13 (setting [1]) it was 0.025 µM; on MMP-14, 6.13 µM; at MMP-1 it was 7.4 µM.

Consider `Cc1c(COc2ccc(-c3ccc(S(=O)(=O)N[C@@H](C(=O)O)C(C)C)cc3)cc2)oc2ccccc12` [Example 139, D-3-Methyl-2-[4′-(3-methyl-benzofuran-2-ylmethoxy)-biphenyl-4-sulfonylamino]-butyric acid], for which the IC50 on MMP-2 was determined as 0.028 µM; at MMP-13 (setting [1]), 0.0044 µM; at MMP-14, 3.5 µM.

Regarding `Cc1c(C(=O)Nc2ccc(-c3ccc(S(=O)(=O)N[C@H](C(=O)O)C(C)C)cc3)cc2)oc2cccc(-c3cccc([N+](=O)[O-])c3)c12` [Example 110, (S)-3-Methyl-2-(4′-{[3-methyl-4-(3-nitro-phenyl)-benzofuran-2-carbonyl]-amino}-biphenyl-4-sulfonylamino)-butyric acid], the IC50 was 2.4 µM at MMP-2, 0.017 µM at MMP-13 (setting [1]), 20 µM on MMP-14 and 49.6 µM on MMP-1.

Turning to `Cc1c(C(=O)Nc2ccc(-c3ccc(S(=O)(=O)N[C@H](C(=O)O)C(C)C)cc3)cc2)oc2cccc(-c3ccccc3)c12` [Example 109, (S)-3-Methyl-2-{4′-[(3-methyl-4-phenyl-benzofuran-2-carbonyl)-amino]-biphenyl-4-sulfonylamino}-butyric acid], the half-inhibitory concentration (IC50) at MMP-2 came to 3.65 µM; on MMP-13 (MMP-13 IC50, recombinant human catalytic domain of MMP-13), 0.015 µM; on MMP-14, 7 µM; at MMP-1, 11 µM.

In the case of `O=C(O)CNS(=O)(=O)c1ccc(-c2ccc(NC(=O)c3cc4ccccc4o3)cc2)cc1` [Example 1, N-({4′-[(1-benzofuran-2-ylcarbonyl)amino]-1,1′-biphenyl-4-yl}sulfonyl)glycine], the IC50 on MMP-2 amounted to 0.047 µM; on MMP-13 (setting [1]), 0.035 µM; at MMP-14, 13.9 µM.

With `CC(C)[C@H](NS(=O)(=O)c1ccc(-c2ccc(NC(=O)c3csc(-c4ccncc4)n3)cc2)cc1)C(=O)O` [Example 169, (S)-3-Methyl-2-{4′-[(2-pyridin-4-yl-thiazole-4-carbonyl)-amino]-biphenyl-4-sulfonylamino}-butyric acid], the IC50 at MMP-2 is 1.19 µM; at MMP-13 (setting [1]), 0.075 µM; on MMP-14, 40 µM; at MMP-1, 40.4 µM.

On to `CN(CC(=O)O)S(=O)(=O)c1ccc(-c2ccc(NC(=O)c3cc4ccccc4o3)cc2)cc1` [Example 79, N-({4′-[(1-Benzofuran-2-ylcarbonyl)amino]-1,1′-biphenyl-4-yl}sulfonyl)-N-methylglycine], for which the concentration for half-maximal inhibition (IC50) on MMP-2 came out at 0.035 µM; at MMP-13 (setting [1]), 0.04 µM; on MMP-14 it was 24 µM; at MMP-1 it was 500 µM.

As for `CC(C)[C@@H](C(=O)O)N(CCN1CCOCC1)S(=O)(=O)c1ccc(-c2ccc(NC(=O)c3cc4ccccc4o3)cc2)cc1` [Example 82, N-({4′-[(1-Benzofuran-2-ylcarbonyl)amino]-1,1′-biphenyl-4-yl}sulfonyl)-N-(2-morpholin-4-ylethyl)-L-valine], the IC50 on MMP-2 was 0.03 µM; on MMP-13 (setting [1]) it was 0.018 µM; at MMP-14, > 60 µM; against MMP-1, > 10 µM.

With `CC(C)[C@@H](NS(=O)(=O)c1ccc(-c2ccc(OCc3cc4ccccc4o3)cc2)cc1)C(=O)O` [Example 141, D-2-[4′-(Benzofuran-2-ylmethoxy)-biphenyl-4-sulfonylamino]-3-methyl-butyric acid], the IC50 came to 0.0025 µM at MMP-2, 0.0011 µM at MMP-13 (setting [1]) and 0.5 µM on MMP-14.

Turning to `CCC(=O)Nc1cccc2oc(C(=O)Nc3ccc(-c4ccc(S(=O)(=O)N[C@H](C(=O)O)C(C)C)cc4)cc3)c(C)c12` [Example 49, L-3-Methyl-2-{4′-[(3-methyl-4-propionylamino-benzofuran-2-carbonyl)-amino]-biphenyl-4-sulfonylamino}-butyric acid], the half-inhibitory concentration (IC50) on MMP-2 worked out at 5.77 µM; on MMP-13 (setting [1]) it was 0.035 µM.

With `CC(C)Oc1cccc2oc(C(=O)Nc3ccc(-c4ccc(S(=O)(=O)N[C@H](C(=O)O)C(C)C)cc4)cc3)cc12` [Example 103, N-[(4′-{[(4-Isopropoxy-1-benzofuran-2-yl)carbonyl]amino}-1,1′-biphenyl-4-yl)sulfonyl]-L-valine], the half-maximal inhibitory concentration (IC50) at MMP-2 came out at 0.0784 µM; at MMP-13 (setting [1]), 0.0039 µM.

For `COc1c(Br)ccc2oc(CNc3ccc(-c4ccc(S(=O)(=O)N[C@H](C(=O)O)C(C)C)cc4)cc3)c(C)c12` [Example 150, N-[(4′-{[(5-bromo-4-methoxy-3-methyl-1-benzofuran-2-yl)methyl]amino}-1,1′-biphenyl-4-yl)sulfonyl]-L-valine], the IC50 at MMP-2 turned out to be 0.198 µM; at MMP-13 (setting [1]), 0.0081 µM.

Regarding `COC(=O)C(C)(C)Oc1cccc2oc(C(=O)Nc3ccc(-c4ccc(S(=O)(=O)N[C@H](C(=O)O)C(C)C)cc4)cc3)c(C)c12` [Example 156, L-2-(4′-{[4-(1-Methoxycarbonyl-1-methyl-ethoxy)-3-methyl-benzofuran-2-carbonyl]-amino}-biphenyl-4-sulfonylamino)-3-methyl-butyric acid], the results for the IC50 on MMP-2 and at MMP-13 (setting [1]) were 6.2 µM and 0.025 µM, respectively.

Turning to `Cc1c(C(=O)Nc2ccc(-c3ccc(S(=O)(=O)N[C@H](C(=O)O)C(C)C)cc3)cc2)oc2cccc(C(=O)N(C)C)c12` [Example 43B, 2-{4′-[(4-dimethylcarbamoyl-3-methyl-benzofuran-2-carbonyl)-amino]-biphenyl-4-sulfonylamino}-3-methyl-butyric acid triethylamine salt], the IC50 was 7.77 µM on MMP-2 and 0.018 µM at MMP-13 (setting [1]).

With `Cc1c(C(=O)Nc2ccc(-c3ccc(S(=O)(=O)N[C@H](C(=O)O)C(C)C)cc3)cc2)oc2ccc3ccccc3c12` [Example 154, L-3-Methyl-2-{4′-[(1-methyl-naphtho[2,1-b]furan-2-carbonyl)-amino]-biphenyl-4-sulfonylamino}-butyric acid], the results for the IC50 at MMP-2 and on MMP-13 (setting [1]) were 0.06 µM and 0.0017 µM, respectively.

Take `Cc1c(C(=O)Nc2ccc(-c3ccc(S(=O)(=O)N(C)[C@H](C(=O)O)C(C)C)cc3)cc2)oc2cccc(C(O)CO)c12` (stereo partly drawn) [Example 99, N-{[4′-({[4-(1,2-dihydroxyethyl)-3-methyl-1-benzofuran-2-yl]carbonyl}amino)-1,1′-biphenyl-4-yl]sulfonyl}-N-methyl-L-valine]: the IC50 at MMP-2 turned out to be 13.2 µM; on MMP-13 (setting [1]), 0.07 µM.
